Results on four compounds are retold here after patent publication US20120208852A1, “Heterocyclic-substituted 2-acetamido-5-aryl-1,2,4-triazolones and use thereof” (BAYER PHARMA AKTIENGESELLSCHAFT, priority 2009, published 2012).

One assay concerns the target T1, human V1a receptor (Homo sapiens, UniProt P37288).
T1 construct: expressed in transfected cells; host or cells: CHO K1 (constitutively expressing modified aequorin)
Nature of the assay: Cellular in vitro assay for vasopressin receptor activity (aequorin luminescence), hV1a. It is filed as cell-based. Conditions: CHO cell line transfected with the human V1a receptor, agonist [Arg8]-vasopressin. The source says: (§1) B-1. Cellular In Vitro Assay for Determining the Vasopressin Receptor Activity
(§2) The identification of agonists and antagonists of the V1a and V2 vasopressin receptors from humans and rats and also the quantification of the activity of the substances described here took place using recombinant cell lines. These cells derive originally from a hamster ovary epithelial cell (Chinese Hamster Ovary, CHO K1, ATCC: American Type Culture Collection, Manassas, Va. 20108, USA). The test cell lines constitutively express a modified form of the calcium-sensitive photoprotein aequorin, which, after reconstitution with the cofactor coelenterazine, emits light when there are increases in the free calcium concentration (Rizzuto R., Simpson A. W., Brini M., Pozzan T.; Nature 358 (1992) 325-327). In addition, the cells are stably transfected with the human or rat V1a or V2 receptors. In the case of the Gs-coupling V2 receptors, the cells are stably transfected with a further gene, which codes for the promiscuous Gα16 protein (Amatruda T. T., Steele D. A., Slepak V. Z., Simon M. I., Proc. Nat. Acad. Sci. USA 88 (1991), 5587-5591), either independently or as a fusion gene. The resulting vasopressin receptor test cells react to stimulation of the recombinantly expressed vasopressin receptors by intracellular release of calcium ions, which can be quantified by the resulting aequorin luminescence using a suitable luminometer (Milligan G., Marshall F., Rees S., Trends in Pharmaco. Sci. 17 (1996) 235-237).
(§3) Test procedure: On the day before the assay, the cells are plated out in culture medium (DMEM, 10% FCS, 2 mM glutamine, 10 mM HEPES) in 384-well microtiter plates and kept in a cell incubator (96% humidity, 5% v/v carbon dioxide, 37° C.). On the day of the assay, the culture medium is replaced by a Tyrode solution (140 mM sodium chloride, 5 mM potassium chloride, 1 mM magnesium chloride, 2 mM calcium chloride, 20 mM glucose, 20 mM HEPES), which additionally contains the cofactor coelenterazine (50 μM), and the microtiter plate is then incubated for a further 3-4 hours. The test substances in various concentrations are placed for 10 to 20 minutes in the wells of the microtiter plate before the agonist [Arg8]-vasopressin is added, and the resulting light signal is measured immediately in the luminometer. The IC50 values are calculated using the GraphPad PRISM computer program (Version 3.02).
(§4) The table below lists representative IC50 values for the compounds of the invention on the cell line transfected with the human V1a or V2 receptor: […]

The next assay addresses T2, human V2 receptor (Homo sapiens, UniProt P30518).
T2 construct: Galpha16 (possible fusion partner; the text says either independent or a fusion gene); expressed in transfected cells; host or cells: CHO K1 (constitutively expressing modified aequorin, co-transfected with Gα16)
Nature of the assay: Cellular in vitro assay for vasopressin receptor activity (aequorin luminescence), hV2. It is filed as cell-based. The conditions noted are these: CHO cell line transfected with the human V2 receptor and Gα16, agonist [Arg8]-vasopressin.
Text: as §1, §2, §3, §4

T1 sequence (P37288 whole entry): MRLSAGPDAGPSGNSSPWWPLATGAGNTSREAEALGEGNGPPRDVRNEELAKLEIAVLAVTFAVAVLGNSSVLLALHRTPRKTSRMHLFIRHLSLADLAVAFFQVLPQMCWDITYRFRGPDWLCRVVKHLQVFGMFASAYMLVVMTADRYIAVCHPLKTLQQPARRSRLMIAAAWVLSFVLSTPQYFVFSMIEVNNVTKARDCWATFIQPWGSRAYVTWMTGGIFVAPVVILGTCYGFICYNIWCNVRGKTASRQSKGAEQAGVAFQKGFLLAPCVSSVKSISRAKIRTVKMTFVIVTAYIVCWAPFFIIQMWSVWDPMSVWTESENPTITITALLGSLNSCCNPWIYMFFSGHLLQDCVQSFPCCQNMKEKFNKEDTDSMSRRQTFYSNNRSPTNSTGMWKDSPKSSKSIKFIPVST
T2 sequence (P30518 whole entry, the tested form may be a part): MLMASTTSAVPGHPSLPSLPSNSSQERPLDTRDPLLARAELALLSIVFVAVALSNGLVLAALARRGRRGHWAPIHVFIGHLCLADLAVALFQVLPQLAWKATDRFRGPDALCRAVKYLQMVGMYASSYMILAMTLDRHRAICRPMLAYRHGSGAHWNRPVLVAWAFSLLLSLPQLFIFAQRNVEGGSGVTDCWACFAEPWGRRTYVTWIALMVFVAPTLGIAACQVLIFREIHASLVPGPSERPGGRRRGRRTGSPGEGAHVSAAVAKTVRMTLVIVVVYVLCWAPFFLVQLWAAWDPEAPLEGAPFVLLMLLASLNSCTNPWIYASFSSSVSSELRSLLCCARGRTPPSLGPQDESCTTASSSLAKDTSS

In the case of `Cc1noc([C@](C)(NC(=O)Cn2nc(-c3ccc(Cl)cc3)n(C[C@H](O)C(F)(F)F)c2=O)c2cccc(C(F)(F)F)c2)n1` [Example 3, 2-{3-(4-Chlorophenyl)-5-oxo-4-[(2S)-3,3,3-trifluoro-2-hydroxypropyl]-4,5-dihydro-1H-1,2,4-triazol-1-yl}-N-{(1R)-1-(3-methyl-1,2,4-oxadiazol-5-yl)-1-[3-(trifluoro-methyl)phenyl]ethyl}acetamide], the IC50 (in general, the concentration needed to halve the response being measured) at human V1a receptor was found to be 6.5 nM; on human V2 receptor it was 3.2 nM.

Consider `C[C@@](NC(=O)Cn1nc(-c2ccc(Cl)cc2)n(C[C@H](O)C(F)(F)F)c1=O)(c1cccc(C(F)(F)F)c1)c1nnn[nH]1` [Example 4, 2-{3-(4-Chlorophenyl)-5-oxo-4-[(2S)-3,3,3-trifluoro-2-hydroxypropyl]-4,5-dihydro-1H-1,2,4-triazol-1-yl}-N-{(1R)-1-(1H-tetrazol-5-yl)-1-[3-(trifluoromethyl)phenyl]ethyl}acetamide], for which the IC50 at human V1a receptor was 8.3 nM; on human V2 receptor, 3.3 nM.

Turning to `COc1cccc(C(NC(=O)Cn2nc(-c3ccc(Cl)cc3)n(C[C@H](O)C(F)(F)F)c2=O)c2cccc(C(F)(F)F)c2)n1` (single isomer, unassigned) [Example 18], the IC50 turned out to be 32 nM on human V1a receptor and 91 nM at human V2 receptor.

Regarding `COc1cccc(C(NC(=O)Cn2nc(-c3ccc(Cl)cc3)n(C[C@H](O)C(F)(F)F)c2=O)c2cccc(C(F)(F)F)c2)n1` (single isomer, unassigned) [Example 19], the results for the IC50 at human V1a receptor and on human V2 receptor were 4.6 nM and 7.1 nM, respectively.
